This is an account of results in patent US20250230151A1, “COMPOUNDS FOR CANCERS DRIVEN BY BRAF MUTATION” (THE BOARD OF TRUSTEES OF THE UNIVERSITY OF ILLINOIS, priority 2021, published 2025).

Where two headings read alike, the source gives them in different places. A value given as a limit tells only on which side of the number the result lay.

One data set has as its system U87 cells. Nature of the data set: 72-hour cell viability assay (Alamar Blue), U87. To be noted: Homo sapiens, WT BRAF. Format: cell-based. As for the experimental part: (§1) Cell Culture and reagents. All cell lines were grown in a 37° C., 5% CO2, humidified environment, in media containing 1% penicillin/streptomycin. Cell culture conditions are as follows: MDCK cells transfected with MDR1 (or ABCB1) were obtained from the Netherlands Cancer Institute (Amsterdam, The Netherlands) and maintained in DMEM with 10% fetal bovine serum (FBS, Gemini). Traditional cell lines A375, CHL-1, B16F10, and U118MG were grown in DMEM with 10% FBS, SK-MEL-28, U87 and T98G in EMEM with 10% FBS, AM-38 in EMEM with 20% HI-FBS (Gibco), HT29 in McCoy's 5A with 10% FBS, HCT116 in RPMI with 10% FBS. Compounds were dissolved in DMSO (1% final concentration, Sigma-Aldrich) for cell culture studies.
(§2) Cell viability assays. Cells were harvested, seeded in a 96-well plate and allowed to adhere overnight. Compound was added to each well in DMSO (1% final concentration). Cells were incubated for 72 hours before viability was assessed by the Alamar Blue Assay. Raptinal ([…]) was used as a dead control.

The test system of another data set is AM-38 cells. Briefly: 72-hour cell viability assay (Alamar Blue), AM-38. Conditions: Homo sapiens, AM-38, V600E BRAF, glioma. Format: cell-based. The method, then: as §1, §2
A further data set concerns the target T1, P-gp (Homo sapiens, UniProt P08183).
T1 construct: host or cells: MDCK (MDR1-MDCK)
Briefly: MDR1-MDCK P-gp transwell bidirectional transport assay. Conditions: dog, MDCK-MDR1, MDR1-MDCK, 10 μM, 90 min. Format: in vitro ADME. The method, then:
A novel compound collection composed of complex and diverse compounds derived from natural products, termed “Complexity-to-Diversity Collection” was employed. […] The CtD compounds were evaluated by the efflux pump and their permeability using the P-gp transwell assay using adapted and optimized known protocols. Compound transport across epithelial cells overexpressing P-gp from basolateral-to-apical and apical-to-basolateral directions were quantified to calculate permeability and efflux ratio.
P-gp transwell bidirectional transport assays. Unless noted otherwise, the transport assay was performed in triplicate in batches of 16 or 24 test compounds, with each batch containing quinidine as a substrate control and propranolol as a non-substrate control. MDR1-MDCK cells were plated at a density of 300,000 cells/cm^2 onto 96-well Falcon™ Multiwell Insert System with 1 µm pore polycarbonate filters with angled-bottom receiver plates (Coming) and were fed with the cell growth medium on day 2.
The donor solution was prepared by adding 1 mM DMSO stocks of compounds to make the final concentration […], and the receiver solution was prepared with equivalent volume of DMSO to make 1% DMSO in final assay chamber volumes.
After 80-96 hours since seeding, the growth media on both sides was aspirated. To the transwell plate (apical side), 50 μL of receiver and donor solutions prepared on a 96-well plate were added, and it was placed on top of a separate angled-bottom 96-well plate (basolateral side) containing 260 μL of receiver and donor solutions.
Following 90 minutes of incubation at 37° C. with shaking at 90 rpm, 20 μL aliquot of samples were taken from both the donor and receiver chambers, and the apical and basolateral sides. Aliquots of 4 test compounds were pooled for each category: apical-donor, apical-receiver, basolateral-donor, basolateral-receiver. To measure CO and mass balance, initial donor samples from both apical and basolateral side were set aside from the assay plate. Acetonitrile twice the volume of pooled samples was added and mixed thoroughly, and precipitated proteins were removed by centrifugation at 20,000 r.c.f for 10 minutes.
To ascertain the MDCK monolayer integrity, the solution on apical side contained 100 µM Lucifer Yellow (Millipore-Sigma). After 90 minutes of compound transport, Lucifer Yellow concentration in the basal well was measured using SpectraMax M3 (Molecular Devices) set to an excitation wavelength of 430 nm and an emission wavelength of 540 nm.
Samples were analyzed with the 5500 QTRAP LC/MS/MS system (AB Sciex) with a 1200 series HPLC system (Agilent Technologies) including a degasser, an autosampler, and a binary pump. The liquid chromatography separation was performed on an Agilent SB-Aq column (4.6×50 mm, 5 μm) (Agilent Technologies) with mobile phase A (0.1% formic acid in water) and mobile phase B (0.1% formic acid in acetonitrile). The flow rate was 0.3 ml min^−1. The linear gradient was optimized for each compound. The autosampler was set at 5° C. The injection volume was 15 μL. Mass spectra were acquired with both positive electrospray ionization at the ion spray voltage of 5,500 V and negative electrospray ionization at the ion spray voltage of −4,500 V. The source temperature was 450° C. The curtain gas, ion source gas 1, and ion source gas 2 were 33, 50 and 65, respectively. Multiple reaction monitoring was used to quantify metabolites.
Efflux data calculations.

In another data set the test system is U118MG cells. Briefly: 72-hour cell viability assay (Alamar Blue), U118MG. The format is cell-based. Conditions: Homo sapiens, U-118-MG, WT BRAF. As for the experimental part:
as §1, §2

Another data set relates to HCT116 cells. Nature of the data set: 72-hour cell viability assay (Alamar Blue), HCT116. To be noted: Homo sapiens, HCT-116, WT BRAF. The format is cell-based. As for the experimental part:
as §1, §2

In the next data set the test system is T98G cells. Nature of the data set: 72-hour cell viability assay (Alamar Blue), T98G. Format: cell-based. Conditions: Homo sapiens, T98G, WT BRAF, read-out: T98G IC50. The method, then:
as §1, §2

The next data set has as its system A375 cells. Briefly: 72-hour cell viability assay (Alamar Blue), A375. Format: cell-based, human. Conditions: Homo sapiens, A-375; 72-hour incubation, Alamar Blue, V600E BRAF. As for the experimental part:
as §1, §2

In another data set the test system is B16F10 cells. Nature of the data set: 72-hour cell viability assay (Alamar Blue), B16F10. The format is cell-based. To be noted: Mus musculus, B16-F10, WT BRAF, read-out: B16F10 IC50. The method, then: as §1, §2
The next data set has as its system CHL-1 cells. Briefly: 72-hour cell viability assay (Alamar Blue), CHL-1. Format: cell-based. To be noted: Homo sapiens, CHL-1, WT BRAF. The method, then: as §1, §2
For another data set, the system named is HT29 cells. Briefly: 72-hour cell viability assay (Alamar Blue), HT29. The format is cell-based. Conditions: Homo sapiens, HT-29, V600E BRAF, colon. As for the experimental part: as §1, §2

T1 sequence (P08183 whole entry): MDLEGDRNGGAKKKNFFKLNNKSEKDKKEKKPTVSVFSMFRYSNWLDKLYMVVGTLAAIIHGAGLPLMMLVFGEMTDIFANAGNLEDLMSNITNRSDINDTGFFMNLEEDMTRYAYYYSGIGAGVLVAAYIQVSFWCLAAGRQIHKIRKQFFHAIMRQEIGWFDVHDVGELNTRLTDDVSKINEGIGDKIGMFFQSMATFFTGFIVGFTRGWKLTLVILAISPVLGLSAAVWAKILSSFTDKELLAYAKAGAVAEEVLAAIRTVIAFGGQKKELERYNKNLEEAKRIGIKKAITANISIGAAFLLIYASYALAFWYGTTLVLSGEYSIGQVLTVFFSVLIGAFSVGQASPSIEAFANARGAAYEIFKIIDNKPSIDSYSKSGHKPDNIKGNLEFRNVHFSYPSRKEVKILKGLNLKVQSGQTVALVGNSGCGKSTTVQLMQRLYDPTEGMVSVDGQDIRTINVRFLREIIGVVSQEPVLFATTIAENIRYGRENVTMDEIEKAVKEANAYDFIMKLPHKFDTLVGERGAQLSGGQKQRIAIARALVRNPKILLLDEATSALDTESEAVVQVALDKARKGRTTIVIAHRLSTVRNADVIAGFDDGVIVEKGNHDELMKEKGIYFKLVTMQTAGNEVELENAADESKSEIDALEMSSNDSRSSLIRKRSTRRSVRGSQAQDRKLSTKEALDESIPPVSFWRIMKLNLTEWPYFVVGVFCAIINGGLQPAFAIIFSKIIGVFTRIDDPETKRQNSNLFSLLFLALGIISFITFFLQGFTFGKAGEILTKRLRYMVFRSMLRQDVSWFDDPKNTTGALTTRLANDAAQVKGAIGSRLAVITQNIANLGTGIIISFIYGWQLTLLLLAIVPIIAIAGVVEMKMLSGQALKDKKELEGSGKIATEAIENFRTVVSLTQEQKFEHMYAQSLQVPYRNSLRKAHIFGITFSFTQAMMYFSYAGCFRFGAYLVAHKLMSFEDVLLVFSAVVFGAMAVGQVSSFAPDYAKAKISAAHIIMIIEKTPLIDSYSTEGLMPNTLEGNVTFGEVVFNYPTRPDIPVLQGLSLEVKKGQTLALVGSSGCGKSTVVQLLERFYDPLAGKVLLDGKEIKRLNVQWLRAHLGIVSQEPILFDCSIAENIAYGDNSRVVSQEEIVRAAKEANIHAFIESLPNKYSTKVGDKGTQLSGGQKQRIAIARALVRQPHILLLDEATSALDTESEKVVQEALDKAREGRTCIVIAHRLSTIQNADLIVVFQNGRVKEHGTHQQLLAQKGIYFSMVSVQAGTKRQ

Turning to `CCCS(=O)(=O)Nc1ccc(F)c(C(=O)c2c[nH]c3ncc(-c4ccc(Cl)cc4)cc23)c1F` [Vemurafenib, reference compound], the half-maximal inhibitory concentration (IC50) was > 10 µM in the data set with U87 cells (U-87 MG, read-out: U87 IC50); > 10 µM in the data set with U87 cells (glioma, read-out: U87 (WT) IC50); 344 ± 59.3 nM with AM-38 cells; > 10 µM with U118MG cells (glioma, read-out: U118MG (WT) IC50); > 10 µM with U118MG cells (read-out: U118MG IC50); 27 µM in the data set with HCT116 cells (colon, read-out: HCT116 (WT) IC50). Moreover, the IC50 in the data set with HCT116 cells (read-out: HCT116 IC50) is > 10 µM; in the data set on T98G cells, > 10 µM; in the data set with A375 cells, 331 ± 93 nM; with B16F10 cells it was > 10 µM; in the data set with CHL-1 cells (melanoma, read-out: CHL-1 (WT) IC50), > 10 µM; with CHL-1 cells (read-out: CHL-1 IC50) it was > 10 µM. This compound also came in with an IC50 with HT29 cells of 240 ± 61.7 nM. This compound also returned an apical-to-basolateral permeability (Papp A→B) at 90 min, 10 µM on P-gp of 0.667 ± 0.11 ×10⁻⁶ cm/s. The same compound showed a basolateral-to-apical permeability (Papp B→A) at 90 min, 10 µM on P-gp of 3.81 ± 0.063 ×10⁻⁶ cm/s. At P-gp (read-out: ER (efflux ratio) (converted)), the efflux ratio at 90 min, 10 µM is 5.92 ± 0.77.
